Assay results: the supplement of paper PMC10307832

Experiments:
Test in all cases: relative viability (nuclei count vs DMSO), 5 days (fraction); higher = more cells survive
[1] = compound: COc1cccc2cc(-c3nc([C@H]4CC[C@H](C(=O)O)CC4)n4ncnc(N)c34)[nH]c12 [OSI-027] + CS(=O)(=O)CCNCc1ccc(-c2ccc3ncnc(Nc4ccc(OCc5cccc(F)c5)c(Cl)c4)c3c2)o1 [Lapatinib] (partner 2 µM)
In short: (§1)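 Nuclei were stained with Hoechst during a one-step fixation (final 0.05% Triton X-100, 1% formaldehyde, 1 ug/ml Hoechst) carried out 5 days after dosing, then counted on 4× images. The cells, lung cancer lines in 1536-well plates, had been dosed by pin tool the day after seeding with one drug alone or a fixed anchor-drug dose plus five library-drug doses (not always all listed) in √10 steps. Relative viability is the nuclei count in treated wells divided by that in vehicle wells, and each value is the median of duplicate plates.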

[2] = compound: CCCS(=O)(=O)Nc1ccc(F)c(C(=O)c2c[nH]c3ncc(-c4ccc(Cl)cc4)cc23)c1F [Vemurafenib] + Nc1nc2[nH]cc(CCc3ccc(C(=O)N[C@@H](CCC(=O)O)C(=O)O)cc3)c2c(=O)[nH]1 [Pemetrexed] (partner 0.2 µM)
In short: as §1

[3] = compound: CCCS(=O)(=O)Nc1ccc(F)c(C(=O)c2c[nH]c3ncc(-c4ccc(Cl)cc4)cc23)c1F [Vemurafenib] + CC(=O)Nc1cccc(-n2c(=O)n(C3CC3)c(=O)c3c(Nc4ccc(I)cc4F)n(C)c(=O)c(C)c32)c1 [Trametinib] (partner 0.02 µM)
In short: as §1

[4] = compound: Cc1nc(NC(=O)N2CCC[C@H]2C(N)=O)sc1-c1ccnc(C(C)(C)C(F)(F)F)c1 [Alpelisib] + Nc1nc2[nH]cc(CCc3ccc(C(=O)N[C@@H](CCC(=O)O)C(=O)O)cc3)c2c(=O)[nH]1 [Pemetrexed] (partner 0.2 µM)
In short: as §1

Cell Line | relative viability ([1]; first compound 0.01 µM) | relative viability ([1]; first compound 0.03162 µM) | relative viability ([1]; first compound 0.1 µM) | relative viability ([1]; first compound 0.3162 µM) | relative viability ([1]; first compound 1 µM) | relative viability ([2]; first compound 0.03162 µM) | relative viability ([2]; first compound 0.1 µM) | relative viability ([2]; first compound 0.3162 µM) | relative viability ([2]; first compound 1 µM) | relative viability ([3]; first compound 0.03162 µM) | relative viability ([3]; first compound 0.1 µM) | relative viability ([3]; first compound 0.3162 µM) | relative viability ([3]; first compound 1 µM) | relative viability ([4]; first compound 0.04 µM) | relative viability ([4]; first compound 0.1265 µM) | relative viability ([4]; first compound 0.4 µM) | relative viability ([4]; first compound 1.265 µM) | relative viability ([4]; first compound 4 µM)
201T | 1.05 | 1.08 | 0.986 | 0.975 | 0.957 | 0.375 | 0.378 | 0.322 | 0.283 | 0.702 | 0.681 | 0.752 | 0.779 | 0.328 | 0.325 | 0.361 | 0.305 | 0.269
A549 | 1.1 | 0.878 | 0.764 | 0.497 | 0.314 |  |  |  |  |  |  |  |  |  |  |  |  | 
A-427 | 1.04 | 1.16 | 0.927 | 0.768 | 0.661 | 0.866 | 0.918 |  | 1.1 | 0.711 | 0.702 |  | 0.763 | 0.89 | 0.87 | 0.988 | 0.885 | 0.845
ABC-1 | 1.33 | 0.991 | 1.04 | 0.97 | 0.553 |  |  |  |  |  |  |  |  |  |  |  |  | 
BEN | 0.626 | 0.529 | 0.419 | 0.355 | 0.281 | 0.627 | 0.832 | 0.445 | 0.619 | 0.935 | 1.01 | 0.638 | 0.811 | 0.723 | 0.598 | 0.844 | 0.794 | 0.85
CAL-12T | 0.648 | 0.589 | 0.499 | 0.375 | 0.418 | 1.16 | 1.15 | 1.52 | 1.17 | 0.28 | 0.289 | 0.438 | 0.442 | 1.26 | 1.14 | 1.3 | 0.93 | 1.03
COR-L23 | 0.887 | 1.2 | 0.744 | 1 | 0.34 | 0.195 | 0.198 | 0.186 | 0.181 | 0.619 | 0.58 | 0.433 | 0.691 | 0.188 | 0.184 | 0.215 | 0.2 | 0.196
COR-L 105 | 0.34 | 0.356 | 0.336 | 0.297 | 0.295 | 0.939 |  | 1.2 | 1.05 | 0.418 |  | 0.428 | 0.655 | 1.12 | 1.18 | 1.39 | 0.935 | 1.13
Calu-6 | 1.06 | 1.06 | 0.953 | 0.829 | 0.621 |  |  |  |  |  |  |  |  |  |  |  |  | 
ChaGo-K-1 |  |  |  |  |  | 0.247 | 0.267 | 0.261 | 0.274 | 0.834 | 0.875 | 0.868 | 0.898 | 0.265 | 0.257 | 0.263 | 0.263 | 0.251
EBC-1 | 0.187 | 0.217 | 0.223 | 0.199 | 0.203 |  |  |  |  |  |  |  |  |  |  |  |  | 
EKVX | 0.169 | 0.189 | 0.201 | 0.16 | 0.153 | 0.379 |  | 0.405 | 0.442 | 0.316 |  | 0.406 | 0.476 | 0.411 | 0.406 | 0.461 | 0.341 | 0.349
EMC-BAC-2 | 0.843 | 0.874 | 0.838 | 0.7 | 0.516 | 0.447 | 0.475 | 0.358 | 0.437 | 0.806 | 0.907 |  | 1.08 | 0.448 | 0.461 | 0.447 | 0.441 | 0.353
IA-LM | 0.765 | 0.697 | 0.499 | 0.193 | 0.223 |  |  |  |  |  |  |  |  |  |  |  |  | 
LCLC-103H |  |  |  |  |  | 0.495 | 0.515 | 0.377 | 0.456 | 0.668 | 0.619 | 0.685 | 0.768 | 0.476 | 0.488 | 0.506 | 0.47 | 0.333
NCI-H441 |  |  |  |  |  | 0.23 | 0.295 | 0.249 | 0.27 | 0.434 | 0.431 | 0.611 | 0.472 | 0.273 | 0.269 | 0.28 | 0.264 | 0.272
NCI-H522 |  |  |  |  |  | 0.855 | 0.98 | 0.867 | 1.2 | 0.695 | 0.63 | 0.786 | 0.783 | 1.07 | 1.03 | 1.1 | 0.946 | 0.72
NCI-H727 | 0.906 | 0.875 | 0.692 | 0.666 | 0.577 |  |  |  |  | 0.407 | 0.374 | 0.487 | 0.399 |  |  |  |  | 
NCI-H1299 | 1.02 | 1.04 | 1.04 | 1.01 | 0.645 |  |  |  |  |  |  |  |  |  |  |  |  | 
NCI-H1563 | 0.846 | 1.05 | 0.745 | 0.757 | 0.775 | 0.708 | 0.627 | 0.681 | 0.65 |  |  |  |  | 0.857 | 0.579 | 0.662 | 0.622 | 0.567
NCI-H1648 |  |  |  |  |  |  | 0.671 | 1.01 | 0.748 |  | 0.326 | 0.569 | 0.58 | 0.661 | 0.743 | 0.894 | 0.559 | 0.482
NCI-H1703 | 1.33 | 1.1 | 0.889 | 0.736 | 0.365 |  |  |  |  |  |  |  |  |  |  |  |  | 
NCI-H2342 |  |  |  |  |  | 0.75 | 0.834 | 0.684 | 0.784 | 0.921 | 0.747 | 0.978 | 0.769 | 0.843 | 0.77 | 0.694 | 0.686 | 0.447
SW 900 |  |  |  |  |  | 0.494 | 0.466 | 0.457 | 0.478 | 0.939 | 0.593 | 0.778 | 0.868 | 0.513 |  | 0.476 | 0.497 | 0.405
